Assay: refractive index (Na D-line) (dimensionless); φn = volume fraction of the nth substance listed
Conditions: 101 kPa, Liquid, Standard Abbe refractometry

C=C[Si]1(C)O[Si](C)(C=C)O[Si](C)(C=C)O[Si](C)(C=C)O1 (stereo not given) [2,4,6,8-tetramethyl-2,4,6,8-tetravinylcycloterasiloxane] + CCc1ccccc1
refractive index
Conditions | 288.15 K | 298.15 K | 308.15 K | 318.15 K | 328.15 K
φ1 = 0.1306 | 1.49051 | – | – | – | –
φ1 = 0.1307 | – | 1.48523 | 1.47983 | 1.47444 | 1.46899
φ1 = 0.2495 | 1.48332 | 1.47811 | – | – | –
φ1 = 0.2496 | – | – | 1.47276 | 1.46745 | 1.46201
φ1 = 0.3353 | 1.47811 | 1.47292 | – | – | –
φ1 = 0.3354 | – | – | 1.46765 | 1.46234 | 1.45699
φ1 = 0.4168 | 1.47313 | 1.46801 | 1.46276 | – | –
φ1 = 0.4169 | – | – | – | 1.45752 | 1.45223
φ1 = 0.4874 | 1.46879 | – | – | – | –
φ1 = 0.4875 | – | 1.4637 | 1.45851 | 1.45331 | 1.44807
φ1 = 0.5524 | 1.46478 | – | – | – | –
φ1 = 0.5525 | – | 1.45974 | 1.4546 | 1.44944 | 1.44422
φ1 = 0.5993 | 1.46188 | – | – | – | –
φ1 = 0.5994 | – | 1.45688 | 1.4518 | 1.4467 | 1.44159
φ1 = 0.6539 | 1.45851 | – | – | – | –
φ1 = 0.654 | – | 1.45353 | 1.44849 | 1.44344 | 1.43836
φ1 = 0.699 | 1.4557 | 1.45075 | – | – | –
φ1 = 0.6991 | – | – | 1.44574 | 1.44073 | 1.43564
φ1 = 0.7394 | 1.4532 | 1.44826 | – | – | –
φ1 = 0.7395 | – | – | 1.44331 | 1.43832 | 1.4333
φ1 = 0.7767 | 1.45085 | 1.44594 | 1.44103 | – | –
φ1 = 0.7768 | – | – | – | 1.43607 | 1.43112
φ1 = 0.809 | 1.44885 | 1.44397 | 1.43906 | – | –
φ1 = 0.8091 | – | – | – | 1.43412 | 1.4292
φ1 = 0.8409 | 1.44681 | 1.44197 | – | – | –
φ1 = 0.841 | – | – | 1.43711 | 1.43222 | 1.42729
φ1 = 0.8663 | 1.44522 | 1.44039 | 1.43554 | 1.43067 | 1.42578
φ1 = 0.8945 | 1.44344 | 1.43862 | – | – | –
φ1 = 0.8946 | – | – | 1.43382 | 1.42898 | 1.42413
φ1 = 0.9191 | 1.44188 | 1.43709 | 1.4323 | 1.42747 | 1.42266
φ1 = 0.9412 | 1.44049 | 1.4357 | 1.43092 | 1.42613 | 1.42133
φ1 = 0.9806 | 1.43796 | 1.43323 | 1.42848 | 1.42373 | 1.41899
φ1 = 1 | 1.43674 | 1.43202 | 1.4273 | 1.42257 | 1.41785

C=C[Si]1(C)O[Si](C)(C=C)O[Si](C)(C=C)O[Si](C)(C=C)O1 (stereo not given) [2,4,6,8-tetramethyl-2,4,6,8-tetravinylcycloterasiloxane] + Cc1ccc(C)cc1
Conditions | refractive index
288.15 K, φ1 = 0.13 | 1.49061
288.15 K, φ1 = 0.2483 | 1.48349
288.15 K, φ1 = 0.3379 | 1.47804
288.15 K, φ1 = 0.4151 | 1.47284
288.15 K, φ1 = 0.4853 | 1.46901
288.15 K, φ1 = 0.5501 | 1.46502
288.15 K, φ1 = 0.5978 | 1.46207
288.15 K, φ1 = 0.6522 | 1.45876
288.15 K, φ1 = 0.6974 | 1.45592
288.15 K, φ1 = 0.738 | 1.45339
288.15 K, φ1 = 0.7753 | 1.45103
288.15 K, φ1 = 0.8083 | 1.44898
288.15 K, φ1 = 0.8395 | 1.44696
288.15 K, φ1 = 0.8652 | 1.44534
288.15 K, φ1 = 0.8938 | 1.44353
288.15 K, φ1 = 0.9184 | 1.44195
288.15 K, φ1 = 0.9358 | 1.44086
288.15 K, φ1 = 0.9803 | 1.43802
288.15 K, φ1 = 1 | 1.43674
298.15 K, φ1 = 0.13 | 1.48533
298.15 K, φ1 = 0.2483 | 1.47825
298.15 K, φ1 = 0.338 | 1.47286
298.15 K, φ1 = 0.4151 | 1.46772
298.15 K, φ1 = 0.4854 | 1.46393
298.15 K, φ1 = 0.5501 | 1.45998
298.15 K, φ1 = 0.5979 | 1.45705
298.15 K, φ1 = 0.6522 | 1.45378
298.15 K, φ1 = 0.6975 | 1.45098
298.15 K, φ1 = 0.7381 | 1.44845
298.15 K, φ1 = 0.7754 | 1.44612
298.15 K, φ1 = 0.8084 | 1.44409
298.15 K, φ1 = 0.8396 | 1.44211
298.15 K, φ1 = 0.8653 | 1.44053
298.15 K, φ1 = 0.8939 | 1.43869
298.15 K, φ1 = 0.9185 | 1.43716
298.15 K, φ1 = 0.9358 | 1.43605
298.15 K, φ1 = 0.9803 | 1.43326
298.15 K, φ1 = 1 | 1.43202
308.15 K, φ1 = 0.13 | 1.47996
308.15 K, φ1 = 0.2484 | 1.47298
308.15 K, φ1 = 0.338 | 1.46767
308.15 K, φ1 = 0.4152 | 1.46256
308.15 K, φ1 = 0.4855 | 1.45883
308.15 K, φ1 = 0.5502 | 1.45494
308.15 K, φ1 = 0.5979 | 1.45204
308.15 K, φ1 = 0.6523 | 1.44878
308.15 K, φ1 = 0.6975 | 1.446
308.15 K, φ1 = 0.7381 | 1.44353
308.15 K, φ1 = 0.7754 | 1.44126
308.15 K, φ1 = 0.8084 | 1.4392
308.15 K, φ1 = 0.8396 | 1.43729
308.15 K, φ1 = 0.8653 | 1.4357
308.15 K, φ1 = 0.8939 | 1.43391
308.15 K, φ1 = 0.9185 | 1.43239
308.15 K, φ1 = 0.9359 | 1.43132
308.15 K, φ1 = 0.9803 | 1.42853
308.15 K, φ1 = 1 | 1.4273
318.15 K, φ1 = 0.1301 | 1.47462
318.15 K, φ1 = 0.2484 | 1.46772
318.15 K, φ1 = 0.3381 | 1.46245
318.15 K, φ1 = 0.4152 | 1.45742
318.15 K, φ1 = 0.4855 | 1.45373
318.15 K, φ1 = 0.5503 | 1.4499
318.15 K, φ1 = 0.598 | 1.44702
318.15 K, φ1 = 0.6523 | 1.4438
318.15 K, φ1 = 0.6976 | 1.44108
318.15 K, φ1 = 0.7381 | 1.43861
318.15 K, φ1 = 0.7755 | 1.43636
318.15 K, φ1 = 0.8084 | 1.43432
318.15 K, φ1 = 0.8396 | 1.43244
318.15 K, φ1 = 0.8653 | 1.43087
318.15 K, φ1 = 0.8939 | 1.42911
318.15 K, φ1 = 0.9185 | 1.42761
318.15 K, φ1 = 0.9359 | 1.42653
318.15 K, φ1 = 0.9803 | 1.42379
318.15 K, φ1 = 1 | 1.42257
328.15 K, φ1 = 0.1301 | 1.46923
328.15 K, φ1 = 0.2484 | 1.46244
328.15 K, φ1 = 0.3381 | 1.45725
328.15 K, φ1 = 0.4152 | 1.45229
328.15 K, φ1 = 0.4855 | 1.44864
328.15 K, φ1 = 0.5503 | 1.44483
328.15 K, φ1 = 0.598 | 1.44202
328.15 K, φ1 = 0.6523 | 1.43879
328.15 K, φ1 = 0.6976 | 1.43612
328.15 K, φ1 = 0.7382 | 1.43369
328.15 K, φ1 = 0.7755 | 1.43148
328.15 K, φ1 = 0.8085 | 1.42949
328.15 K, φ1 = 0.8396 | 1.42761
328.15 K, φ1 = 0.8653 | 1.42605
328.15 K, φ1 = 0.8939 | 1.42343
328.15 K, φ1 = 0.9185 | 1.42282
328.15 K, φ1 = 0.9359 | 1.42178
328.15 K, φ1 = 0.9803 | 1.41906
328.15 K, φ1 = 1 | 1.41785
